Earlier results in patent US20130195986A1, “New Particles of Tetracyclines and Protecting Agent” (HOVIONE INTER LTD, priority 2010, published 2013).

Test system: staining of the teeth and bones and pigmentation of the thyroid gland
Conditions: rats; simultaneous administration of ascorbic acid (vitamin C) with minocycline

O=C1O[C@H]([C@@H](O)CO)C(O)=C1O [ascorbic acid]
staining of the teeth and bones and pigmentation of the thyroid gland: prevented staining of the teeth and bones and pigmentation of the thyroid gland
